TGI data for eight compounds are collected here from PubChem BioAssay (NCI).

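Results reflect a 48-hour exposure of cells in 96-well plates to compound at five concentrations. TGI denotes the concentration required for complete inhibition of growth.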 Where only a bound is given, the exact number is not on record here.

Test systems include RPMI-8226 leukemia; XF 498 CNS; OVCAR-3 ovarian; SK-MEL-28 melanoma; EKVX NSCLC; IGROV1 ovarian; SN12C renal; HOP-92 NSCLC; LOX IMVI melanoma; HOP-62 NSCLC; NCI-H23 lung; SF-295 CNS; CAKI-1 renal; SK-MEL-5 melanoma; OVCAR-8 ovarian; DMS 273 small cell lung; HCT-15 colon; COLO 205 colon; SNB-19 CNS; KM20L2 colon.
Test in all cases: growth of human tumour cells (NCI), 48 h

Take `O=C(O)CNS(=O)(=O)c1ccc(NC(=O)Nc2ccccc2)cc1`: the TGI with RPMI-8226 leukemia is above 100 µM; with XF 498 CNS, above 100 µM; with OVCAR-3 ovarian it was above 100 µM; in the assay with SK-MEL-28 melanoma, above 100 µM; with EKVX NSCLC, above 100 µM; with IGROV1 ovarian, above 54.4 µM. For the same compound, the TGI in the assay with SN12C renal, in the assay with HOP-92 NSCLC, with LOX IMVI melanoma, with HOP-62 NSCLC, in the assay on NCI-H23 lung and with SF-295 CNS was above 100 µM each time. The TGI in the assay on CAKI-1 renal, in the assay on SK-MEL-5 melanoma, in the assay on OVCAR-8 ovarian, in the assay with DMS 273 small cell lung, in the assay on HCT-15 colon and with COLO 205 colon was above 100 µM each time. For the same compound, the TGI with SNB-19 CNS and with KM20L2 colon was above 100 µM in each case.

For `CC(C)(O)[C@H](CCO)O[Si](c1ccccc1)(c1ccccc1)C(C)(C)C`, the TGI came to 49.4 µM in the assay with RPMI-8226 leukemia; 20.7 µM in the assay with XF 498 CNS; 23.9 µM with OVCAR-3 ovarian; 29 µM in the assay with SK-MEL-28 melanoma; 29.6 µM with EKVX NSCLC; 25.3 µM with IGROV1 ovarian. Further, the TGI with SN12C renal is 14 µM; in the assay with HOP-92 NSCLC it was 23.5 µM; with LOX IMVI melanoma, 27.6 µM; in the assay with SF-295 CNS, 18.9 µM; in the assay with SK-MEL-5 melanoma, 27.2 µM; in the assay with OVCAR-8 ovarian it was 23.8 µM. In addition, the TGI in the assay with DMS 273 small cell lung is 24.2 µM; with HCT-15 colon, 20.7 µM; in the assay with COLO 205 colon, 29.6 µM; in the assay with SNB-19 CNS it was 19.5 µM; in the assay with KM20L2 colon, 23.9 µM.

For the compound `COc1cc2c(cc1OC)C(Cc1c3ccccc3cc3ccccc13)N(C)CC2` (configuration not stated), the TGI with RPMI-8226 leukemia was 34 µM; in the assay with XF 498 CNS it was 38.8 µM; with OVCAR-3 ovarian, above 61.1 µM; with SK-MEL-28 melanoma it was 46.8 µM; with EKVX NSCLC it was 96.8 µM; in the assay on IGROV1 ovarian, 65.4 µM. The TGI was above 100 µM in the assay on SN12C renal; 35 µM in the assay on HOP-92 NSCLC; 41.2 µM with LOX IMVI melanoma; 48.7 µM in the assay on HOP-62 NSCLC; above 85.3 µM in the assay with NCI-H23 lung; 33.8 µM in the assay with SF-295 CNS. In addition, the TGI with CAKI-1 renal was above 100 µM; in the assay with SK-MEL-5 melanoma, 35.3 µM; in the assay on OVCAR-8 ovarian it was above 90.7 µM; in the assay on DMS 273 small cell lung, 74.1 µM; in the assay with HCT-15 colon, above 87.6 µM; in the assay on COLO 205 colon, 29.7 µM. Besides, the TGI was found to be 52.4 µM with SNB-19 CNS and 40.5 µM in the assay with KM20L2 colon.

For the compound `CCNCCCCNCC`, the TGI in the assay on RPMI-8226 leukemia, in the assay on XF 498 CNS, with OVCAR-3 ovarian, with SK-MEL-28 melanoma, in the assay on EKVX NSCLC and in the assay on IGROV1 ovarian was above 3750 µM throughout. Moreover, the TGI with SN12C renal, in the assay on HOP-92 NSCLC, with LOX IMVI melanoma, in the assay with HOP-62 NSCLC, in the assay on NCI-H23 lung and in the assay with SF-295 CNS was above 3750 µM throughout. For the same compound, the TGI in the assay on CAKI-1 renal, in the assay with SK-MEL-5 melanoma, in the assay with OVCAR-8 ovarian, in the assay with DMS 273 small cell lung, in the assay on HCT-15 colon and in the assay with COLO 205 colon was above 3750 µM in each case. Moreover, the TGI in the assay on SNB-19 CNS and with KM20L2 colon was above 3750 µM each time.

As for `CC1=C2C(O)C(C(C)C(=O)NC(C)C)CCC2(C)C=CC1=O` (configuration not stated), the TGI in the assay on RPMI-8226 leukemia, in the assay with XF 498 CNS, in the assay on OVCAR-3 ovarian, with SK-MEL-28 melanoma, in the assay with EKVX NSCLC and in the assay with IGROV1 ovarian was above 100 µM throughout. Further, the TGI in the assay on SN12C renal, in the assay on HOP-92 NSCLC, in the assay with LOX IMVI melanoma, in the assay on HOP-62 NSCLC, with NCI-H23 lung and with SF-295 CNS was above 100 µM throughout. Besides, the TGI in the assay with CAKI-1 renal, with SK-MEL-5 melanoma, with OVCAR-8 ovarian, with DMS 273 small cell lung, with HCT-15 colon and in the assay with COLO 205 colon was above 100 µM each time. Also, the TGI with SNB-19 CNS and with KM20L2 colon was above 100 µM throughout.

Consider `Cn1c(=O)c2nc(N3CCCCC3)cnc2n(C)c1=O`, for which the TGI in the assay on RPMI-8226 leukemia, in the assay on XF 498 CNS, in the assay with OVCAR-3 ovarian, in the assay on SK-MEL-28 melanoma, with EKVX NSCLC and in the assay with IGROV1 ovarian was above 100 µM throughout. Further, the TGI in the assay with SN12C renal, with HOP-92 NSCLC, in the assay with HOP-62 NSCLC, with NCI-H23 lung, with SF-295 CNS and in the assay on CAKI-1 renal was above 100 µM each time. Further, the TGI with SK-MEL-5 melanoma, in the assay with OVCAR-8 ovarian, in the assay with HCT-15 colon, in the assay on COLO 205 colon, in the assay with SNB-19 CNS and in the assay on KM20L2 colon was above 100 µM in each case.

Take `Cc1cc(N=Nc2ccc(N=Nc3c(O)c(S(=O)(=O)O)cc4cc(S(=O)(=O)O)ccc34)cc2C)ccc1N=Nc1ccc2cc(S(=O)(=O)O)cc(S(=O)(=O)O)c2c1`: the TGI in the assay on RPMI-8226 leukemia, with XF 498 CNS, in the assay with OVCAR-3 ovarian, with SK-MEL-28 melanoma, with EKVX NSCLC and in the assay on IGROV1 ovarian was above 100 µM throughout. Also, the TGI with SN12C renal, with HOP-92 NSCLC, in the assay on LOX IMVI melanoma, with HOP-62 NSCLC, in the assay with NCI-H23 lung and in the assay with SF-295 CNS was above 100 µM in each case. Further, the TGI in the assay on SK-MEL-5 melanoma is above 100 µM; with OVCAR-8 ovarian it was above 31.6 µM; in the assay with DMS 273 small cell lung, above 100 µM; with HCT-15 colon, above 100 µM; in the assay with COLO 205 colon it was above 100 µM; in the assay with SNB-19 CNS, above 100 µM. The compound also had a TGI in the assay with KM20L2 colon above 100 µM.

As to `COC(=O)NN1C(=O)C(=P(c2ccccc2)(c2ccccc2)c2ccccc2)C(C(=O)OC)=C1C`, the TGI with RPMI-8226 leukemia, in the assay with OVCAR-3 ovarian, with SK-MEL-28 melanoma, with EKVX NSCLC, in the assay on IGROV1 ovarian and in the assay on SN12C renal was above 100 µM each time. For the same compound, the TGI was 79.5 µM in the assay on HOP-92 NSCLC; above 100 µM with LOX IMVI melanoma; above 100 µM in the assay on NCI-H23 lung; above 100 µM in the assay on SF-295 CNS; above 100 µM in the assay with CAKI-1 renal; above 100 µM in the assay on SK-MEL-5 melanoma. The TGI in the assay on OVCAR-8 ovarian, in the assay with DMS 273 small cell lung, with HCT-15 colon, with COLO 205 colon, with SNB-19 CNS and with KM20L2 colon was above 100 µM in each case.
